The text below walks through data of US20230277831A1, “Focused Ultrasound Device” (Washington University, priority 2022, published 2023).

The data set can be described thus: Evans blue delivery after FUS-BBBO, fluorescence imaging of brain sections. The class given is in vivo, mice (C57BL/6). The following applies: mouse brain. As to the method:
Following the FUS-BBBO treatment as described in Example 3, the brains of the mice were harvested and harvested sections were fluorescence imaged using an LI-COR imaging system (Pearl Trilogy; 700 Channel laser source (Ex 785 nm/Em 820 nm); resolution 85 μm). Enhanced fluorescence signals associated with the delivery of Evans blue through the FUS-disrupted BBB were determined by comparing sections from FUS-BBBO and corresponding untreated brain halves.
Evans Blue has been commonly used as a model drug for evaluating the FUS-BBBO drug delivery outcome. The harvested mouse brains were cut into 1-mm thick coronal sections using the mouse brain matrix (World Precision Instrument, Sarasota, Fla., USA). Fluorescence images of brain sections were taken using a LI-COR imaging system (Pearl Trilogy; 700 Channel laser source (Ex 785 nm/Em 820 nm); resolution 85 μm) and analyzed using Matlab (Mathworks, Natick, Mass., USA). […] Pixels with intensities above the background autofluorescence intensity were identified for each brain section. Evans blue delivery volume was calculated by the total number of pixels with enhanced fluorescence signal in all the brain sections. The mean fluorescence intensity of pixels with enhanced fluorescence signal in all the brain sections was calculated to represent the signal intensity of the delivered Evans blue.

For the compound `Cc1cc(-c2ccc(/N=N/c3ccc4c(S(=O)(=O)O)cc(S(=O)(=O)O)c(N)c4c3O)c(C)c2)ccc1/N=N/c1ccc2c(S(=O)(=O)O)cc(S(=O)(=O)O)c(N)c2c1O` [Evans Blue], the “Evans Blue extravasation” value is “observed” (FUS at 0.4 MPa and 0.57 MPa for all frequencies (1.5, 3.0, 6.0 MHz) and 0.2 MPa for 1.5 MHz); “not detectable” (FUS at 3.0 MHz and 6.0 MHz at 0.2 MPa). Moreover, the “Evans Blue delivery volume” value runs as follows: (i.v., FUS-BBBO at 1.5 MHz, 0.57 MPa (largest BBB opening volume), mean±SD) 69±3.8 mm^3; (i.v., FUS-BBBO at 6 MHz, 0.4 MPa (smallest BBB opening volume), mean±SD) 8.9±1.3 mm^3. For the same compound, where the note is “i.v., FUS-BBBO at 1.5 MHz, 0.57 MPa, mean fluorescence intensity, mean±SD”, the “Evans Blue signal intensity” value is on record as 47±8.2.
